Laboratory results as given in patent publication US20250302832A1, “PYRAZINE DERIVATIVES AND USES THEREOF” (FOGHORN THERAPEUTICS INC., priority 2022, published 2025).

Legend:
HiBit-BRM fusion protein = target: T1, HiBit-BRM fusion protein (Homo sapiens, UniProt P51531); assay: HiBiT-BRM cell-based degradation assay (Nano-Glo HiBiT lytic detection, 24 h); conditions: HeLa cell line expressing HiBiT-BRM; for DC50: read-out: BRM HiBit Degradation IC50
T1 construct: expressed in transfected cells
Summary of the method: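 Stable HeLa HiBiT-BRM cells treated 24 h with compounds (10-point 3-fold dilutions, 30 μM final top dose, duplicate). HiBiT levels read by Nano-Glo lytic luminescence; % degradation normalised to DMSO (high control) and 2 μM reference BRM/BRG1 degrader (low control).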

[1] = target: T2, HiBit-BRG1 fusion protein (Homo sapiens, UniProt P51532); assay: HiBiT-BRG1 cell-based degradation assay (Nano-Glo HiBiT lytic detection, 24 h); conditions: HeLa cell line expressing HiBit-BRG1 and LgBit; for Dmax: read-out: BRG1 HiBit Degradation Maximum (%); for DC50: read-out: BRMG1 HiBit Degradation IC50
T2 construct: expressed in transfected cells
Summary of the method: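 HeLa cells stably expressing HiBiT-BRG1 and LgBiT, 5000 per well, compound-treated 24 h, equilibrated 15 min at room temperature, then lysed with LgBiT-containing Nano-Glo HiBiT lytic reagent and luminescence read. % degradation normalised between DMSO (high control) and 2 μM reference BRM/BRG1 degrader (low control).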

T1 sequence (P51531 whole entry, the tested form may be a part): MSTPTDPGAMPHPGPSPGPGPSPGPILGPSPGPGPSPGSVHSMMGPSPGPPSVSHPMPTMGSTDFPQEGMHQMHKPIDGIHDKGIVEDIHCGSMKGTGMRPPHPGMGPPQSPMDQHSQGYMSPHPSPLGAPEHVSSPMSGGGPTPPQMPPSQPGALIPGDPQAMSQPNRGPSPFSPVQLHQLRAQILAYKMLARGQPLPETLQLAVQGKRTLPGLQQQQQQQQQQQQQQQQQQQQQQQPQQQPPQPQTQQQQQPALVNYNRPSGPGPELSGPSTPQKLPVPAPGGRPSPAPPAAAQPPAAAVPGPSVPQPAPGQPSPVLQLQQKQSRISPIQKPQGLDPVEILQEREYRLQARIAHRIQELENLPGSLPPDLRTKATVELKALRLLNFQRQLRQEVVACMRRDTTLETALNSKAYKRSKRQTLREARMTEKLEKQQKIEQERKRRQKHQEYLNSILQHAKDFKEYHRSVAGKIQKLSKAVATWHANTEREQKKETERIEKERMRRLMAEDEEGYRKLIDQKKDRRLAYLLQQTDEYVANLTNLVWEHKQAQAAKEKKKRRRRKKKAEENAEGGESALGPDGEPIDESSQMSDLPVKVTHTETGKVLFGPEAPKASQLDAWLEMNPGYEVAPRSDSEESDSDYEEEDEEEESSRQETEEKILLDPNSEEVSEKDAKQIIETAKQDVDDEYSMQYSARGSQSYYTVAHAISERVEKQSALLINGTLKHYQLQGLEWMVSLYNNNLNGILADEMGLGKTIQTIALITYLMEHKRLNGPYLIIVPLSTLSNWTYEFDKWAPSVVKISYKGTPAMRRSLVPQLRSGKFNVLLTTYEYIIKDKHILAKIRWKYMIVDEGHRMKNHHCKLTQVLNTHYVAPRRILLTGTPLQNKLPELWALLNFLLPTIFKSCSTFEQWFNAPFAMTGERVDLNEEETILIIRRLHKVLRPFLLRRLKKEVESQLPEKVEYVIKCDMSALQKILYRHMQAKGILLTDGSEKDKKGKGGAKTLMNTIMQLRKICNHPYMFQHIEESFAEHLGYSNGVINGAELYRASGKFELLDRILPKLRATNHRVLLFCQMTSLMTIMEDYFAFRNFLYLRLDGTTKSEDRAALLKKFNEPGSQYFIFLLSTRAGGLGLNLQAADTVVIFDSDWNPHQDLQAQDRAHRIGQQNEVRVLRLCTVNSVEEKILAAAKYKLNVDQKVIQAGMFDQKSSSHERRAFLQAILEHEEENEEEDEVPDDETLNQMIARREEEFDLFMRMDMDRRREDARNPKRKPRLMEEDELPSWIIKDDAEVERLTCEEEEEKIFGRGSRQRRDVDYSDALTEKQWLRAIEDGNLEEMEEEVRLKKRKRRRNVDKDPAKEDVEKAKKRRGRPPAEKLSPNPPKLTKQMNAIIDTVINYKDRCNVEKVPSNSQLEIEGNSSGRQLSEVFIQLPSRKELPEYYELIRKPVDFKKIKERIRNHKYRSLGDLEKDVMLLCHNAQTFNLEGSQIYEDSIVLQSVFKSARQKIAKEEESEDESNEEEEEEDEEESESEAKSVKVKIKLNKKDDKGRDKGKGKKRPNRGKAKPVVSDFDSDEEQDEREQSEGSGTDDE
T2 sequence (P51532 whole entry, the tested form may be a part): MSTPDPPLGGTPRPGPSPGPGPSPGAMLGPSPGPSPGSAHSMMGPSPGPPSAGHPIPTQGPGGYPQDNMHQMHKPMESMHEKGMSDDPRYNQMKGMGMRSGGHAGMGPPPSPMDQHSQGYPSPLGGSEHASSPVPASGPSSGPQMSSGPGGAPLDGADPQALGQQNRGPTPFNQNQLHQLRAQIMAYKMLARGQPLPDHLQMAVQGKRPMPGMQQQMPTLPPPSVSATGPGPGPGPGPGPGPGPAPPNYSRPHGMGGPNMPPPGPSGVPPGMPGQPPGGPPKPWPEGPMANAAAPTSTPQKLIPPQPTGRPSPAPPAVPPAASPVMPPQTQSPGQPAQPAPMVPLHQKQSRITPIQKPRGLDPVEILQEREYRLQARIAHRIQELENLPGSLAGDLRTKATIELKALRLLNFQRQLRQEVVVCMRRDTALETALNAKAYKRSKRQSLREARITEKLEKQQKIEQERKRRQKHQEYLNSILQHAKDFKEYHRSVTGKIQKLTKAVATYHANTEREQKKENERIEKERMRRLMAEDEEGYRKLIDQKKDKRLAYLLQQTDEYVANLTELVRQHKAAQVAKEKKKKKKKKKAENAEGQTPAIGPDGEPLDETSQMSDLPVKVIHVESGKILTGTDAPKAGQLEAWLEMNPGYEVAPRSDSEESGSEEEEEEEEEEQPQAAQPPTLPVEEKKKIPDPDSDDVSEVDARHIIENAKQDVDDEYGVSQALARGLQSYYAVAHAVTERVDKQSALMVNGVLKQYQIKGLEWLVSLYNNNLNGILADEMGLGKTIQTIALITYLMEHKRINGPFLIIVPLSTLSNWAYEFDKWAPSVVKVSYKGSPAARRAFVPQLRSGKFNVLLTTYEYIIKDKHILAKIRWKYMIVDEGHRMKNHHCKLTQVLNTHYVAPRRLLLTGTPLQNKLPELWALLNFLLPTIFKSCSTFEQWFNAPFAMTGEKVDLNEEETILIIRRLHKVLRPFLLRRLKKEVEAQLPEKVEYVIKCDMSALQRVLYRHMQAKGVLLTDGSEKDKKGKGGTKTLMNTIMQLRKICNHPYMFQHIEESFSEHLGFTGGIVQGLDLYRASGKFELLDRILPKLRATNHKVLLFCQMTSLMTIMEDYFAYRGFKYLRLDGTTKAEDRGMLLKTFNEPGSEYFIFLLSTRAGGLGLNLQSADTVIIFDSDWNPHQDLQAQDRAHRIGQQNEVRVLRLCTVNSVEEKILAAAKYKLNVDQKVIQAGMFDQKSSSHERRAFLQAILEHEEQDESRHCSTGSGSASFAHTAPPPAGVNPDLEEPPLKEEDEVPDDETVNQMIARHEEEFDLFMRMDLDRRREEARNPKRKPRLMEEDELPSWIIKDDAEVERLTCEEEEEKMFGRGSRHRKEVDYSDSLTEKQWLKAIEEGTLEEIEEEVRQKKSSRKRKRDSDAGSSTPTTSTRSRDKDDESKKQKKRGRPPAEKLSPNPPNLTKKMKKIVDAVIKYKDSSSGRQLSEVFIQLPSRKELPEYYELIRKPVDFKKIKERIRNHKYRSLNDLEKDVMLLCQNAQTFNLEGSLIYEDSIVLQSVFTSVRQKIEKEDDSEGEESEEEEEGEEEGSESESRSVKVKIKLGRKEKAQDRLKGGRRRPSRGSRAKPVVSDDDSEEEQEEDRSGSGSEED

Structure (SMILES)	DC50 (HiBit-BRM fusion protein) [nM]	Dmax [1] [%]	DC50 [1] [nM]	BRM HiBit Degradation Maximum (%) (HiBit-BRM fusion protein)	BRG1 HiBit Degradation Maximum (%) [1]
Cc1ncsc1-c1ccc([C@H](C)NC(=O)[C@@H]2C[C@@H](O)CN2C(=O)[C@@H](c2cc(OCCN3CCC(O)(c4cc5nnc(-c6ccccc6O)cc5n4C)CC3)no2)C(C)C)cc1 [Compound 30, (2S,4R)-4-hydroxy-1-[(2R)-2-[3-(2-{4-hydroxy-4-[3-(2-hydroxyphenyl)-5-methylpyrrolo[3,2-c]pyridazin-6-yl]piperidin-1-yl}ethoxy)-1,2-oxazol-5-yl]-3-methylbutanoyl]-N-[(1S)-1-[4-(4-methyl-1,3-thiazol-5-yl)phenyl]ethyl]pyrrolidine-2-carboxamide]	> 10	> 75	> 100	A (“A” indicates maximum degradation ≥75%)	–
Cc1ncsc1-c1ccc([C@H](C)NC(=O)[C@@H]2C[C@@H](O)CN2C(=O)[C@@H](c2cc(OCCN3CC(n4ccc5nnc(-c6ccccc6O)cc54)C3)no2)C(C)C)cc1 [Compound 31, (2S,4R)-4-hydroxy-1-[(2R)-2-[3-(2-{3-[3-(2-hydroxyphenyl)pyrrolo[3,2-c]pyridazin-5-yl]azetidin-1-yl}ethoxy)-1,2-oxazol-5-yl]-3-methylbutanoyl]-N-[(1S)-1-[4-(4-methyl-1,3-thiazol-5-yl)phenyl]ethyl]pyrrolidine-2-carboxamide]	> 10	< 50	–	B (“B” indicates maximum degradation ≥50%)	–
Cc1ncsc1-c1ccc([C@H](C)NC(=O)[C@@H]2C[C@@H](O)CN2C(=O)[C@@H](c2cc(OCCN3CC(n4cc(C(F)F)c5nnc(-c6ccccc6O)cc54)C3)no2)C(C)C)cc1 [Compound 32, (2S,4R)-1-((R)-2-(3-(2-(3-(7-(difluoromethyl)-3-(2-hydroxyphenyl)-5H-pyrrolo[3,2-c]pyridazin-5-yl)azetidin-1-yl)ethoxy)isoxazol-5-yl)-3-methylbutanoyl)-4-hydroxy-N—((S)-1-(4-(4-methylthiazol-5-yl)phenyl)ethyl)pyrrolidine-2-carboxamide]	–	< 50	–	C (“C” indicates maximum degradation <50%)	–
Cc1ncsc1-c1ccc([C@H](C)NC(=O)[C@@H]2C[C@@H](O)CN2C(=O)[C@@H](c2cc(OCCN3C[C@@H]4[C@H](C3)[C@H]4n3c(C)cc4nnc(-c5ccccc5O)cc43)no2)C(C)C)cc1 [Compound 33, (2S,4R)-4-hydroxy-1-[(2R)-2-(3-{2-[(1R,5S,6S)-6-[3-(2-hydroxyphenyl)-6-methylpyrrolo[3,2-c]pyridazin-5-yl]-3-azabicyclo[3.1.0]hexan-3-yl]ethoxy}-1,2-oxazol-5-yl)-3-methylbutanoyl]-N-[(1S)-1-[4-(4-methyl-1,3-thiazol-5-yl)phenyl]ethyl]pyrrolidine-2-carboxamide]	–	< 50	–	C (“C” indicates maximum degradation <50%)	–
Cc1ncsc1-c1ccc([C@H](C)NC(=O)[C@@H]2C[C@@H](O)CN2C(=O)[C@H](c2cc(-c3cnc(N4CC[C@H](c5cc6nnc(-c7ccccc7O)cc6n5C5CC5)C4)nc3)no2)C(C)C)cc1 [Compound 35, (2S,4R)-1-((S)-2-(3-(2-((S)-3-(5-cyclopropyl-3-(2-hydroxyphenyl)-5H-pyrrolo[3,2-c]pyridazin-6-yl)pyrrolidin-1-yl)pyrimidin-5-yl)isoxazol-5-yl)-3-methylbutanoyl)-4-hydroxy-N—((S)-1-(4-(4-methylthiazol-5-yl)phenyl)ethyl)pyrrolidine-2-carboxamide]	> 100	< 50	–	A (“A” indicates maximum degradation ≥75%)	–
Cc1ncsc1-c1ccc([C@H](C)NC(=O)[C@@H]2C[C@@H](O)CN2C(=O)[C@H](c2cc(-c3cnc(N4CC[C@@H](c5cc6nnc(-c7ccccc7O)cc6n5C5CC5)C4)nc3)no2)C(C)C)cc1 [Compound 37, (2S,4R)-1-((S)-2-(3-(2-((R)-3-(5-cyclopropyl-3-(2-hydroxyphenyl)-5H-pyrrolo[3,2-c]pyridazin-6-yl)pyrrolidin-1-yl)pyrimidin-5-yl)isoxazol-5-yl)-3-methylbutanoyl)-4-hydroxy-N—((S)-1-(4-(4-methylthiazol-5-yl)phenyl)ethyl)pyrrolidine-2-carboxamide]	> 10	< 50	–	A (“A” indicates maximum degradation ≥75%)	–
Cc1ncsc1-c1ccc([C@H](C)NC(=O)[C@@H]2C[C@@H](O)CN2C(=O)[C@H](c2cc(-c3ccnc(N4CC[C@H](c5cc6nnc(-c7ccccc7O)cc6n5C5CC5)C4)n3)no2)C(C)C)cc1 [Compound 40]	–	< 50	–	C (“C” indicates maximum degradation <50%)	–
Cc1ncsc1-c1ccc([C@H](C)NC(=O)[C@@H]2C[C@@H](O)CN2C(=O)[C@@H](c2cc(-c3ccnc(N4CC[C@H](c5cc6nnc(-c7ccccc7O)cc6n5C5CC5)C4)n3)no2)C(C)C)cc1 [Compound 41]	> 10	< 50	–	A (“A” indicates maximum degradation ≥75%)	–
Cc1ncsc1-c1ccc([C@H](C)NC(=O)[C@@H]2C[C@@H](O)CN2C(=O)[C@H](c2cc(-c3cnc(N4CCC(c5cc6nnc(-c7ccccc7O)cc6n5C5(C)CC5)CC4)nc3)no2)C(C)C)cc1 [Compound 42]	> 10	< 50	–	B (“B” indicates maximum degradation ≥50%)	–
Cc1ncsc1-c1ccc([C@H](C)NC(=O)[C@@H]2C[C@@H](O)CN2C(=O)[C@@H](c2cc(-c3cnc(N4CCC(c5cc6nnc(-c7ccccc7O)cc6n5C5CCC5)CC4)nc3)no2)C(C)C)cc1 [Compound 46]	–	< 50	–	C (“C” indicates maximum degradation <50%)	–
Cc1ncsc1-c1ccc([C@H](C)NC(=O)[C@@H]2C[C@@H](O)CN2C(=O)[C@@H](c2cc(-c3cnc(N4CCC(c5cc6nnc(-c7ccccc7O)cc6n5C5CCC5)CC4)nc3)no2)C(C)C)cc1 [Compound 47]	< 10	–	–	A (“A” indicates maximum degradation ≥75%)	C (“C” indicates maximum degradation <50%)
Cc1ncsc1-c1ccc(CNC(=O)[C@@H]2C[C@@H](O)CN2C(=O)[C@@H](c2cc(N3CC4(CC(c5cc6nnc(-c7ccccc7O)cc6n5C5CCC5)C4)C3)no2)C(C)C)cc1 [Compound 48, (2S,4R)-1-((R)-2-(3-(6-(5-cyclobutyl-3-(2-hydroxyphenyl)-5H-pyrrolo[3,2-c]pyridazin-6-yl)-2-azaspiro[3.3]heptan-2-yl)isoxazol-5-yl)-3-methylbutanoyl)-4-hydroxy-N-(4-(4-methylthiazol-5-yl)benzyl)pyrrolidine-2-carboxamide]	> 10	< 50	–	A (“A” indicates maximum degradation ≥75%)	–

The next lines start with results.

DC50 (HiBit-BRM fusion protein) [nM]	Dmax [1] [%]	DC50 [1] [nM]	Structure (SMILES)	BRM HiBit Degradation Maximum (%) (HiBit-BRM fusion protein)	BRG1 HiBit Degradation Maximum (%) [1]
< 10	< 50	–	Cc1ncsc1-c1ccc([C@H](C)NC(=O)[C@@H]2C[C@@H](O)CN2C(=O)[C@@H](c2cc(-c3cnc(N4CC[C@H](c5cc6nnc(-c7ccccc7O)cc6n5C5CC5)C4)nc3)no2)C(C)C)cc1 [Compound 34, (2S,4R)-1-((R)-2-(3-(2-((S)-3-(5-cyclopropyl-3-(2-hydroxyphenyl)-5H-pyrrolo[3,2-c]pyridazin-6-yl)pyrrolidin-1-yl)pyrimidin-5-yl)isoxazol-5-yl)-3-methylbutanoyl)-4-hydroxy-N—((S)-1-(4-(4-methylthiazol-5-yl)phenyl)ethyl)pyrrolidine-2-carboxamide]	A (“A” indicates maximum degradation ≥75%)	–
< 10	> 75	< 10	Cc1ncsc1-c1ccc([C@H](C)NC(=O)[C@@H]2C[C@@H](O)CN2C(=O)[C@@H](c2cc(-c3cnc(N4CC[C@@H](c5cc6nnc(-c7ccccc7O)cc6n5C5CC5)C4)nc3)no2)C(C)C)cc1 [Compound 36, (2S,4R)-1-((R)-2-(3-(2-((R)-3-(5-cyclopropyl-3-(2-hydroxyphenyl)-5H-pyrrolo[3,2-c]pyridazin-6-yl)pyrrolidin-1-yl)pyrimidin-5-yl)isoxazol-5-yl)-3-methylbutanoyl)-4-hydroxy-N—((S)-1-(4-(4-methylthiazol-5-yl)phenyl)ethyl)pyrrolidine-2-carboxamide]	A (“A” indicates maximum degradation ≥75%)	–
< 10	< 50	–	Cc1ncsc1-c1ccc([C@H](C)NC(=O)[C@@H]2C[C@@H](O)CN2C(=O)[C@@H](c2cc(-c3cnc(N4CCC(c5cc6nnc(-c7ccccc7O)cc6n5C5(C)CC5)CC4)nc3)no2)C(C)C)cc1 [Compound 43]	A (“A” indicates maximum degradation ≥75%)	–
< 10	< 50	–	Cc1ncsc1-c1ccc([C@H](C)NC(=O)[C@@H]2C[C@@H](O)CN2C(=O)[C@H](c2cc(-c3cnc(N4CCC(c5cc6nnc(-c7ccccc7O)cc6n5C(C)C)CC4)nc3)no2)C(C)C)cc1 [Compound 44]	B (“B” indicates maximum degradation ≥50%)	–
< 10	> 75	< 10	Cc1ncsc1-c1ccc([C@H](C)NC(=O)[C@@H]2C[C@@H](O)CN2C(=O)[C@@H](c2cc(-c3cnc(N4CCC(c5cc6nnc(-c7ccccc7O)cc6n5C(C)C)CC4)nc3)no2)C(C)C)cc1 [Compound 45]	A (“A” indicates maximum degradation ≥75%)	–
